# Measurements published in article PMC8593400, “Effective Search of Triterpenes with Anti-HSV-1 Activity Using a Classification Model by Logistic Regression” (Frontiers in Chemistry, 2021).
# “Also recorded” adds a separate entry of the source. Like-named read-outs stand apart in the source and are kept apart here.
# What was measured:
# [1] = system: HSV-1 (HF strain: acyclovir-sensitive); experiment: plaque reduction assay on Vero cells (anti-HSV-1 activity); type: cell-based, herpes simplex virus type 1; conditions: for IC50: 50% inhibitory concentration, plaque reduction
# Description: Antiviral effects against HSV-1 (HF strain: acyclovir-sensitive) were evaluated using a plaque reduction assay with some modifications as previously reported ([Ogawa et al., 2018]). The activity of all test compounds was measured at 25 μM, corresponding to the threshold of the prediction model. […] The protocol was performed follows.
# Vero cells were maintained in Dulbecco’s Modified Eagle Medium (DMEM) supplemented with 10% fetal calf serum (FBS). Vero cells (1.7–2.8 × 10^5 cells/well) were seeded onto a 12-well tissue culture plate and precultured for 1–2 days. The cells were inoculated with 100 plaque-forming units (PFU) of HSV-1 in 0.1 ml of FBS-free DMEM. After 30 min, the inoculum was removed. HSV-infected cells were maintained in DMEM containing 10% FBS, methylcellulose, and serially diluted test compounds. After 48 h of incubation at 37°C, the medium was removed. The cell sheets were stained with 1% crystal violet dissolved in 50% methanol, and the number of plaques larger than 0.4 mm was counted. HSV-1 replication causes cytopathic effects, resulting in plaque formation. The number and size of plaques reflected virus yields. To examine the effect of virus yield reduction, the total plaque number in cells untreated with the compound was defined as 100% and set as the control group. The significant difference of test compounds at 25 μM from the control group was calculated using the Student’s t-test. The significant difference of each concentration of 10–13 and 16 from the control group was calculated by Dunnett’s test. Probability (p) values less than 0.05 were considered to be significant (^* p < 0.05, ^** p < 0.01).
# [2] = cytotoxicity, CellTiter-Glo 3D cell viability assay; type: cell-based; conditions: African green monkey
# Description: (§1) All test compounds were evaluated their cytotoxicity by using CellTiter-Glo 3D® cell viability assay ([Matsumoto et al., 2020]). Briefly, Vero cells (3.0 × 10^3 cells/ well) were seeded in 96-well plates (96F Nunclon TM Delta Microwell SI; Thermo Fisher Scientific), and precultured for 24 h. The cells were treated with test compounds (10 μL/well). After 48 h, CellTiter-Glo® 3D Reagent (Promega, Madison, WI, United States) was added at 100 μL per well, mixed by shaking for 5 min at RT, and incubated for 25 min at 37°C. The cell-containing media were transferred to a 96-well white plate (96F Nunclon TM Delta White Microwell SI; Thermo Fisher Scientific). Luminescence was measured with a luminometer (FLUOstar OPTIMA®; BMG Labtech, Ortenberg, Germany).
# HSV-1 = conditions: cited from earlier work; for anti-HSV-1 activity previously reported: ref Rattanathongkom et al., 2009
# Vero cells = experiment: cytotoxicity, CellTiter-Glo 3D cell viability assay; type: cell-based
# Description: as §1
# [3] = design: method as in Rattanathongkom et al., 2009; conditions: ref Rattanathongkom et al., 2009; cited from earlier work
# [4] = Human alphaherpesvirus 1, Vero, 48 h, 25 μM, plaque number vs untreated control, Vero cells, 48 h, read-out: Inhibitory rate (%) 25 μM
# [5] = Human alphaherpesvirus 1, Vero, Vero cells, read-out: IC50
# [6] = Human alphaherpesvirus 1, Vero, 48 h, 5 μM, plaque number vs untreated control, Vero cells, 48 h, read-out: Inhibitory rate (%) 5 μM
# [7] = Human alphaherpesvirus 1, Vero, 48 h, 10 μM, plaque number vs untreated control, Vero cells, 48 h, read-out: Inhibitory rate (%) 10 μM
# [8] = Human alphaherpesvirus 1, Vero, 48 h, read-out: Inhibitory rate (%) 25 μM, 25 μM, plaque number vs untreated control, Vero cells, 48 h
molecule,measurement,setting,value
"C[C@@H]1CC[C@]2(C(=O)O)CC[C@]3(C)C(=CC[C@@H]4[C@@]5(C)C[C@@H](O)[C@@H](O)C(C)(C)[C@@H]5CC[C@]43C)[C@@H]2[C@]1(C)O [Compound 1, Euscaphic acid]",inhibition at 25 µM,[1]; [4],0%
same,"viability at 48 h, 25 µM",[2]; Cell viability (%),117 ± 5.2%
"CC1(C)CC[C@]2(C(=O)O)CC[C@]3(C)C(=CCC4[C@@]5(C)C[C@H](O)[C@H](O)[C@@](C)(CO)C5CC[C@]43C)[C@@H]2C1 (some centres unmarked) [Compound 2, bayogenin]","viability at 48 h, 25 µM",[2]; Cell viability (%),117 ± 6.99%
"C=C1CCC2(C(=O)O)C(O)CC3(C)C(=CCC4C5(C)CCC(OC6OC(C(=O)O)C(O)C(O)C6O)C(C)(C)C5CCC43C)C2C1 (centres unmarked) [Compound 4, Pfaffiaglycoside B]",inhibition at 25 µM,[1]; [4],7.64 ± 10.7%
same,"viability at 48 h, 25 µM",[2]; Cell viability (%),108 ± 4.17%
"CC1(C)C(=O)CC[C@@]2(C)C1CC[C@]1(C)C2CC=C2[C@@H]3C[C@](C)(C(=O)O)CC[C@]3(C(=O)O)CC[C@]21C (stereo partly drawn) [Compound 5, (20α)-3-oxoolean-12-ene-28,29-dioic acid]","viability at 48 h, 25 µM",[2]; Cell viability (%),122 ± 5.6%
"C=C1CC[C@]2(C(=O)O)[C@@H](O)C[C@]3(C)C(=CC[C@@H]4[C@@]5(C)CC[C@H](O)C(C)(C)[C@@H]5CC[C@]43C)[C@@H]2C1 [Compound 6, pfaffianol A]",inhibition at 25 µM,[1]; [4],12.4 ± 16.9%
same,"viability at 48 h, 25 µM",[2]; Cell viability (%),122 ± 6.84%
"CC(C)[C@@H](O)C[C@@H](O)[C@](C)(O)[C@H]1CC[C@@]2(O)C3=CC(=O)[C@@H]4C[C@@H](O)[C@@H](O)C[C@]4(C)[C@H]3CC[C@]12C [Compound 7, pterosterone]","viability at 48 h, 25 µM",[2]; Cell viability (%),115 ± 3.95%
"CC(C)(O)CCC[C@](C)(O)[C@H]1CC[C@@]2(O)C3=CC(=O)[C@@H]4C[C@@H](O)[C@@H](O)C[C@]4(C)C3CC[C@]12C (some centres unmarked) [Compound 8, taxisterone]","viability at 48 h, 25 µM",[2]; Cell viability (%),122 ± 4.78%
"C[C@]12C[C@H](O)[C@H](O)C[C@H]1C(=O)C=C1[C@@H]2CC[C@]2(C)[C@@H](O)CC[C@@]12O [Compound 9, 2β,3β,14α,17β-tetrahydroxy-5β-androst-7-en-6-one]","viability at 48 h, 25 µM",[2]; Cell viability (%),106 ± 3.86%
"CC1(C)CCC2(C(=O)O)CCC3(C)C(=CCC4C5(C)CCC(OC6OC(C(=O)O)C(O)C(O)C6O)C(C)(C)C5CCC43C)C2C1 [Compound 10, oleanolic acid 3-O-β-D-glucuronopyranoside]",anti-HSV-1 activity in words (significance vs control),[1]; 25 μM,significant activity
same,IC50,"[1]; Vero cells, read-out: IC50",14.1 µM
same,IC50,[1]; [5],< 25 µM
same,inhibition at 5 µM,[1]; [6],5.85 ± 8.4%
same,inhibition at 10 µM,[1]; [7],27.5 ± 8.92%
same,inhibition at 25 µM,[1]; [4],83.3 ± 41.1%
same,anti-HSV-1 activity previously reported,HSV-1,did not show any anti-HSV-1 activity
same,"viability at 48 h, 10 µM",[2]; Cell viability (%),104 ± 9.28%
same,"viability at 48 h, 25 µM",[2]; Cell viability (%),14.6%
same,"viability at 48 h, 50 µM",[2]; Cell viability (%),1.47 ± 0.54%
same,cytotoxicity in words,Vero cells,showed cytotoxicity
same,Cell viability (%),"Vero cells; African green monkey, 48 h, 10 µM",104.0 ± 9.28%
same,cytotoxicity previously reported,[3],cytotoxicity
"CC1(C)CC[C@]2(C(=O)O[C@@H]3O[C@H](CO)[C@@H](O)[C@H](O)[C@H]3O)CC[C@]3(C)C(=CC[C@@H]4[C@@]5(C)CC[C@H](O[C@@H]6O[C@H](C(=O)O)[C@@H](O)[C@H](O)[C@H]6O)C(C)(C)[C@@H]5CC[C@]43C)[C@@H]2C1 [Compound 11, chikusetsusaponin IVa]",anti-HSV-1 activity in words (significance vs control),[1]; 25 μM,significant activity
same,Inhibitory rate (%) 25 μM,"[1]; 25 μM, plaque number vs untreated control, Vero cells, 48 h, 25 µM",51.82 ± 9.61^** %
same,IC50,[1]; Vero cells,13.1 µM
same,IC50,"[1]; Human alphaherpesvirus 1, Vero, Vero cells",< 25 µM
same,inhibition at 5 µM,"[1]; Human alphaherpesvirus 1, Vero, 48 h, read-out: Inhibitory rate (%) 5 μM, 5 μM, plaque number vs untreated control, Vero cells, 48 h",14.6 ± 15%
same,inhibition at 10 µM,"[1]; Human alphaherpesvirus 1, Vero, 48 h, read-out: Inhibitory rate (%) 10 μM, 10 μM, plaque number vs untreated control, Vero cells, 48 h",36.8 ± 17.4%
same,inhibition at 25 µM,[1]; [8],51.8 ± 9.61%
same,anti-HSV-1 activity previously reported,HSV-1,exhibit anti-HSV-1 activity
same,"viability at 48 h, 25 µM",[2]; Cell viability (%),112 ± 4.45%
same,"viability at 48 h, 50 µM",[2]; Cell viability (%),113 ± 6.08%
"C=C1CCC2(C(=O)OC3OC(CO)C(O)C(O)C3O)CCC3(C)C(=CCC4C5(C)CCC(OC6OC(C(=O)O)C(O)C(O)C6O)C(C)(C)C5CCC43C)C2C1 (centres unmarked) [Compound 12, boussingoside A2]",anti-HSV-1 activity in words (significance vs control),[1]; 25 μM,significant activity; also recorded: moderate anti-HSV-1 activity
same,inhibition at 5 µM,[1]; [6],4.42 ± 8.12%
same,inhibition at 10 µM,[1]; [7],2.77 ± 11.6%
same,inhibition at 25 µM,[1]; [4],24.7 ± 10.2%
same,"viability at 48 h, 25 µM",[2]; Cell viability (%),112 ± 6.79%
same,"viability at 48 h, 50 µM",[2]; Cell viability (%),111 ± 9.73%
same,cytotoxicity in words,Vero cells,no cytotoxicity
"CC(C)(O)CCC(=O)[C@](C)(O)[C@H]1CC[C@@]2(O)C3=CC(=O)[C@@H]4C[C@@H](O)[C@@H](O)C[C@]4(C)C3CC[C@]12C (some centres unmarked) [Compound 15, 22-oxo-20-hydroxyecdysone]","viability at 48 h, 25 µM",[2]; Cell viability (%),115 ± 3.93%
"CC(C)C(C)CCC(C)C1CCC2C1(C)CCC1C23C=CC2(CC(O)CCC12C)OO3 (stereo not drawn) [Compound 16, 5α,8α-epidioxyergosta-3β-ol]",anti-HSV-1 activity in words (significance vs control),[1]; 25 μM,significant activity
same,inhibition at 5 µM,[1]; [6],-2.49 ± 8.74%
same,inhibition at 10 µM,[1]; [7],0%
same,inhibition at 25 µM,[1]; [4],27.2 ± 5.52%
same,"viability at 48 h, 25 µM",[2]; Cell viability (%),130 ± 6.83%
same,"viability at 48 h, 50 µM",[2]; Cell viability (%),2.96 ± 1.77%
"C[C@@H](C1CC[C@@]2(C)C3=C(CC[C@]12C)[C@@]1(C)CC[C@H](O)C(C)(C)C1CC3)[C@H](O)/C=C/C(C)(C)OO (stereo partly drawn) [Compound 17, 3β,22R-Dihydroxylanosta-8,23E-diene-25-peroxide]","viability at 48 h, 25 µM",[2]; Cell viability (%),16.8%
"CC(C)=CCC[C@@H](C=O)[C@H]1CC[C@@]2(C)C3=C(CC[C@]12C)[C@@]1(C)CC[C@H](O)C(C)(C)[C@@H]1CC3 [Compound 18, 3β-hydroxylanosta-8,24-dien-21-al]",inhibition at 25 µM,[1]; [4],1.24 ± 3.8%
same,"viability at 48 h, 25 µM",[2]; Cell viability (%),113 ± 4.93%
"CC(C)=CCC[C@@H](C)[C@H]1CC[C@@]2(C)C3=C(CC[C@]12C)[C@@]1(C)CC[C@H](O)C(C)(C)[C@@H]1CC3 [Compound 19, lanosterol]",inhibition at 25 µM,[1]; [8],20.4 ± 8.49%
same,"viability at 48 h, 25 µM","[2]; Vero cells, 25 μM, Vero cells, 48 h, read-out: Cell viability (%)",101 ± 4.72%
"C[C@H](C/C=C/C(C)(C)OO)C1CC[C@@]2(C)C3=C(CC[C@]12C)[C@@]1(C)CC[C@H](O)C(C)(C)C1CC3 (stereo partly drawn) [Compound 20, (3β,23E)-25-hydroperoxylanosta-8,23-dien-3-ol]",inhibition at 25 µM,[1]; [4],19 ± 9.25%
"Nc1nc2c(ncn2COCCO)c(=O)[nH]1 [acyclovir, reference compound]",IC50,[1]; [5],3.08 µM
same,inhibition at 2.5 µM,"[1]; Human alphaherpesvirus 1, Vero, 48 h, 2.5 μM, plaque number vs untreated control, Vero cells, 48 h, read-out: Inhibitory rate (%) 2.5 μM",57.5 ± 11.9%
same,inhibition at 10 µM,[1]; [7],96 ± 11.8%
same,"viability at 48 h, 10 µM","[2]; Vero cells, 10 μM, Vero cells, 48 h, read-out: Cell viability (%)",103 ± 13.8%
"CC1(C)CC[C@]2(C(=O)O)CC[C@]3(C)C(=CC[C@@H]4[C@@]5(C)CC[C@H](O)C(C)(C)[C@@H]5CC[C@]43C)[C@@H]2C1 [oleanolic acid, reference compound]",inhibition at 5 µM,[1]; [6],9.02 ± 4.22%
same,inhibition at 25 µM,[1]; [4],21.4 ± 11.6%
cucurbitacin B [reference compound],anti-HSV-1 activity,"HSV-1; ref Hassan et al., 2017",strong anti-HSV-1 activity
same,selectivity index,"HSV-1; ref Hassan et al., 2017",high
